The target in one assay is T1, POSH (Homo sapiens, UniProt Q7Z6J0).
T1 construct: GST-POSH lot NB81/p.118 3.6 mg/ml; fused on or other part: GST tag, used for detection with anti-GST XL665
T1 sequence (Q7Z6J0 1-269 limits assumed): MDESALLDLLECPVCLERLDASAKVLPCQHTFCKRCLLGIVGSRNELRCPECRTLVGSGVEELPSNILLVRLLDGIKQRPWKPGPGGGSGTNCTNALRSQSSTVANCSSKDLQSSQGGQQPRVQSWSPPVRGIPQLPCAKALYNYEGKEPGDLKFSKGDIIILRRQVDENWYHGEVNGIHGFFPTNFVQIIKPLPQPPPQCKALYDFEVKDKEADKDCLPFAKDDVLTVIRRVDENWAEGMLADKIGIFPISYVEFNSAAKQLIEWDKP
Nature of the assay: Selectivity (% A in 1 μM), ubiquitin ligase activity of POSH. In kind it is biochemical. Particulars: read-out: Selectivity (% A* in 1 μM) POSH. On the procedure: Experimental Protocols: 1. HTS Screening Assay Procedure • Microplates 10109D to 10114D compounds at 1 mM. • (Controls in column 1). • All compounds were perchase from ChemBridge corporation: ChemBridge corporation 16981 Via Tazon, Suite G San Diego, Calif. 92127 a. Microplates Labeling • Put labels to 6 PS U-bottom clear microplate. • Put labels to 18 black microplates (triplicats). b. Microplates Preparation • Put 100 μl GST-POSH at 33 nM in wells of the clear PS U-bottom microplates (exept wells A1-D1). • Negative control: place 100 μl dH2O in wells A1-D1. • (Positive control: place 100 μl GST-POSH at 33 nM in wells E1-H1). • Put 8 μl enzymes solution ×4 to black microplates (column 1 to 11). c. Incubation of E3 with Compounds • Transfer 5 μl of compounds (at 1 mM) to the microplates containing 100 μl GST-POSH. • Add 5 μl of DMSO to controls column 1. • Incubation 30 minutes at RT. d. […] 2. […] Microplates Labeling • Put labels to 4 clear PP clear microplate (18.2 μM, 9.1 uM, 1.82 uM, 910 nM,). • Put labels to 5 clear PS U-bottom clear microplate 4.44 μM, 909, 444, 91 and 44 nM) • Put labels to 15 black microplates (triplicates). f. Original Microplate Dilutions • Put DMSO 40 μl to (18.2 μM, 1.82 uM plates) and 20 ul to (9.1 uM, 910 nM plates. • Mix by pipetation the original microplate (3× up and down 45 μl). • Transfer 10 μl of compounds from the original microplate (at 91 μM) to the next microplate (=18.2 μM) on splitting apparatus. • Mix by pipetation the 18.2 uM microplate (3× up and down 45 μl). • Transfer 20 μl of compounds from the 18.2 uM microplate to the next microplate (=9.1 μM) on splitting apparatus. • Mix by pipetation the 9.1 uM microplate (3× up and down 45 μl). • Transfer 10 μl of compounds from the 9.1 uM microplate to the next microplate (=1.82 μM) on splitting apparatus. • Mix by pipetation the 1.82 uM microplate (3× up and down 45 μl). • Transfer 20 μl of compounds from the 1.82 uM microplate to the next microplate (=910 nM) on splitting apparatus • Mix by pipetation. g. Microplates Preparation • Put 123 μl GST-POSH at 33 nM in wells of the 5 clear PS U-bottom clear microplates. • Positive control: place 123 μl GST-POSH at 33 nM in well A12-h12 13 μl DMSO. • Negative control: place 123 μl dH2O in well B1 and 13 μl DMSO. • Put 8 μl enzymes solution ×4 to 15 black microplates. • Controls: put 8 μl enzymes solution ×4 to wells A1 to F1. h. Incubation of POSH with Compounds • Take 7 μl of compounds at original plate (91 μM) and put into the 4.44 μM labeled microplate containing 123 μl GST-POSH, on splitting apparatus. • Mix by pipetation (3× up and down 115 μl), note time. • Take 7 μl of compounds at 18.2 μM and put into the 910 nM labeled microplate containing 123 μl GST-POSH, on splitting apparatus. • Mix by pipetation (3× up and down 115 μl), note time. • Take 7 μl of compounds at 9.1 μM and put into the 444 nM labeled microplate containing 123 μl GST-POSH, on splitting apparatus. • Mix by pipetation (3× up and down 115 μl), note time. • Take 7 μl of compounds at […] and put into the 91 nM labeled microplate containing 123 μl GST-POSH, on splitting apparatus. • Mix by pipetation (3× up and down 115 μl), note time. • Take 7 μl of compounds at 91.0 nM and put into the 44 nM labeled microplate containing 123 μl GST-POSH, on splitting apparatus. • Mix by pipetation (3× up and down 115 μl), note time. • Incubation 30 minutes at RT. i.

The next assay addresses Hmdm2 (Homo sapiens, UniProt Q00987). The experiment in a line: Selectivity (% A in 1 μM), ubiquitin ligase activity of Hmdm2. It is filed as biochemical. The note with it: read-out: Selectivity (% A* in 1 μM) Hmdm2.
[1] abbreviates: % activity at 1 μM compound, control is related to 100% activity, HTS protocol.

Where two headings read alike, the source gives them in different places.

Chain of Hmdm2 (Q00987 whole entry): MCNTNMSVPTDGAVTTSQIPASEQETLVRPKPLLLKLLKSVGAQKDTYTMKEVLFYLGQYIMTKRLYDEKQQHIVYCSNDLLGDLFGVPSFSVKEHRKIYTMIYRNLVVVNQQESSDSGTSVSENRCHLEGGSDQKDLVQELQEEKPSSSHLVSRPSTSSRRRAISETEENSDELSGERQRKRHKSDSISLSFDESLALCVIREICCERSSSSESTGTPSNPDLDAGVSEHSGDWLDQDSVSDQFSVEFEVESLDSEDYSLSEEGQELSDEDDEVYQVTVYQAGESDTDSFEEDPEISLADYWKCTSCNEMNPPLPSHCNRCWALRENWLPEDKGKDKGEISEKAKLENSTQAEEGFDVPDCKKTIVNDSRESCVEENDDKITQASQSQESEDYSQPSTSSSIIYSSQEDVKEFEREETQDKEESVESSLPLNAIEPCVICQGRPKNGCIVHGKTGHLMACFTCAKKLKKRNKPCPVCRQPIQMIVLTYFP

Consider `COc1cc(/C=C2\SC(=O)NC2=O)ccc1OCc1ccc(Cl)cc1Cl` [Compound 34], for which the remaining activity at 1 µM was determined as 23% on POSH (setting [1]) and 123% on Hmdm2 (setting [1]). Take `O=C1S/C(=C/c2ccc(-c3ccc([N+](=O)[O-])cc3Cl)o2)C(=O)N1c1ccccc1` [Compound 27]: the remaining activity at 1 µM on POSH came out at 6%. With `O=C1NC(=O)N(c2ccc(Br)cc2)C(=O)/C1=C/c1ccc(O)cc1` [Compound 5], the remaining activity at 1 µM at POSH (setting [1]) is 13%; at Hmdm2 (setting [1]) it was 61%. As for `CN(C)c1ccc(/C=C2\SC(=S)N(C3CCS(=O)(=O)C3)C2=O)cc1` (stereo not shown) [Compound 110], the remaining activity at 1 µM on POSH amounted to 94%; on Hmdm2, 51%. `COc1cc(N/C=C2/C(=O)NC(=S)N(c3cccc(C)c3)C2=O)cc(OC)c1` [Compound 16]: the results for the remaining activity at 1 µM on POSH (setting [1]) and on Hmdm2 (setting [1]) were 51% and 86%, respectively.

Turning to `COc1ccc(/C=C/C(=O)C2C(=O)CCC2=O)cc1OC` [Compound 113], the remaining activity at 1 µM at POSH (setting [1]) is 74%; at Hmdm2 (setting [1]) it was 101%. On to `Cc1ccc(/C=N/c2ccc(C(N)=O)cc2)o1` [Compound 73], for which the remaining activity at 1 µM at POSH (setting [1]) amounted to 16%; at Hmdm2 (setting [1]) it was 96%. The like results for `Cc1ccc(/C=N/c2ccc(Cl)cc2)o1` [Compound 74] were, in that order, 17% and 107%. In the case of `O=C1C(=Cc2ccc(-c3ccc(Br)cc3)o2)C(=O)c2ccccc21` [Compound 38], the values for the remaining activity at 1 µM at POSH and at Hmdm2 were 17% and 111%, respectively. For the molecule `COc1ccc(CNc2cccc(N(C)C)c2)cc1` [Compound 106], the remaining activity at 1 µM is 27% at POSH (setting [1]) and 80% at Hmdm2 (setting [1]). With `C=CCN1C(=O)/C(=C/c2c3ccccc3cc3ccccc23)SC1=S` [Compound 109], the values for the remaining activity at 1 µM on POSH and on Hmdm2 were 67% and 106%, respectively. With `COc1ccc(N2C(=O)NC(=O)/C(=C\c3ccc(Cl)cc3)C2=O)cc1` [Compound 7], the values for the remaining activity at 1 µM at POSH (setting [1]) and at Hmdm2 (setting [1]) were 108% and 101%, respectively. Turning to `C=CCN1C(=O)NC(=O)/C(=C/c2ccc(F)cc2)C1=O` [Compound 12], the figures for the remaining activity at 1 µM on POSH (setting [1]) and at Hmdm2 (setting [1]) were 54% and 99%, respectively. Regarding `Cc1ccc(/N=C/c2cccc(O)c2O)cc1C` [Compound 56], the figures for the remaining activity at 1 µM at POSH and at Hmdm2 were 27% and 73%, respectively. In the case of `O=C(O)c1ccc(-c2ccc(/C=c3\sc4nc5ccccc5n4c3=O)o2)cc1` [Compound 28], the remaining activity at 1 µM on POSH came out at 26%; at Hmdm2 it was 90%. In the case of `Cc1cc(C)c(O)c(/N=C/c2c(O)ccc3ccccc23)c1` [Compound 65], the results for the remaining activity at 1 µM at POSH (setting [1]) and on Hmdm2 (setting [1]) were 8% and 98%, respectively. As for `O=C(C(Cl)Cl)N1CCN(c2ccc([N+](=O)[O-])cc2)CC1` [Compound 79], the remaining activity at 1 µM on POSH (setting [1]) came out at 120%; on Hmdm2 (setting [1]), 94%. In the case of `Cc1c(C(=O)/C=C/c2ccccc2)c2cc(O)ccc2n1C` [Compound 75], the remaining activity at 1 µM at POSH is 103%; on Hmdm2 it was 113%. Regarding `COc1ccc(/C=N/c2ccc(Nc3ccccc3)cc2)c2ccccc12` [Compound 55], the remaining activity at 1 µM on POSH worked out at 40%; on Hmdm2, 58%.

For the molecule `O=c1nc(-c2ccc(Br)cc2)cc(-c2ccc([N+](=O)[O-])cc2)[nH]1` [Compound 84], the remaining activity at 1 µM on POSH worked out at 67%; at Hmdm2, 102%.

With `S=C(c1ccc(-c2cc(Cl)ccc2Cl)o1)N1CCCCC1` [Compound 35], the remaining activity at 1 µM on POSH is 44%; on Hmdm2, 101%.

Take `CC(=O)Nc1ccc(-c2cc3ccccn3c2)cc1` [Compound 78]: the remaining activity at 1 µM amounted to 22% at POSH (setting [1]) and 93% at Hmdm2 (setting [1]).

Consider `COC(=O)c1ccc(N2C(=O)c3cccc(N)c3C2=O)cc1` [Compound 21], for which the remaining activity at 1 µM was found to be 83% on POSH (setting [1]) and 80% on Hmdm2 (setting [1]). Turning to `Oc1c(Br)cc(Cl)cc1/C=N/c1ccccc1Br` [Compound 58], the figures for the remaining activity at 1 µM on POSH (setting [1]) and at Hmdm2 (setting [1]) were 40% and 102%, respectively. For the molecule `Oc1ccc2ccccc2c1/C=N/c1ncc(Br)cc1Br` [Compound 66], the remaining activity at 1 µM at POSH (setting [1]) is 53%; on Hmdm2 (setting [1]) it was 120%. For the molecule `Oc1ccc(/N=C/c2cccs2)cc1-c1nc2ccccc2s1` [Compound 71], the figures for the remaining activity at 1 µM at POSH (setting [1]) and at Hmdm2 (setting [1]) were 9% and 78%, respectively. Taken in the same sequence, the figures for `O=C1C(=Cc2ccco2)C(=O)N(c2ccccc2)C(=S)N1c1ccccc1` [Compound 13] were 7% and 11%.

`O=[N+]([O-])c1ccc(Cl)cc1CN1CCN(CCO)CC1` [Compound 82]: the remaining activity at 1 µM is 60% at POSH (setting [1]) and 120% at Hmdm2 (setting [1]). In the case of `O=C1C=CC(=O)N1c1cc(Cl)cc(Cl)c1` [Compound 23], the figures for the remaining activity at 1 µM at POSH (setting [1]) and at Hmdm2 (setting [1]) were 9% and 107%, respectively. Taken in the same sequence, the figures for `O=[N+]([O-])c1ccc(-c2ccc(/N=C/c3c(O)ccc4ccccc34)cc2)cc1` [Compound 60] were 22% and 90%. Take `COc1cc(C=C2C(=O)N(C)C(=S)N(C)C2=O)ccc1O` [Compound 9]: the remaining activity at 1 µM at POSH (setting [1]) is 91%; on Hmdm2 (setting [1]), 103%. Take `Cc1cc(/N=C/c2c(O)ccc3ccccc23)no1` [Compound 111]: the remaining activity at 1 µM is 17% at POSH (setting [1]) and 72% on Hmdm2 (setting [1]).

As to `O=C1C=CC(=O)N1c1ccc(OC(F)(F)C(F)F)c(N2C(=O)C=CC2=O)c1` [Compound 20], the remaining activity at 1 µM at POSH was determined as 33%; on Hmdm2, 132%. Regarding `CCCCCCOc1ccc(C=C2C(=O)NC(=S)NC2=O)cc1` [Compound 15], the values for the remaining activity at 1 µM at POSH and on Hmdm2 were 14% and 90%, respectively. Regarding `Cc1cc(I)ccc1NCn1nnc2ccccc21` [Compound 105], the remaining activity at 1 µM at POSH (setting [1]) stood at 28%; at Hmdm2 (setting [1]), 102%.

For `COc1ccccc1/C=C1\N=C(c2ccccc2Cl)OC1=O` [Compound 49], the values for the remaining activity at 1 µM at POSH (setting [1]) and on Hmdm2 (setting [1]) were 77% and 115%, respectively. As for `O=C1\C(=C/C=C/C=C/Nc2ccccc2)SC(=S)N1c1ccccc1` [Compound 24], the results for the remaining activity at 1 µM on POSH (setting [1]) and at Hmdm2 (setting [1]) were 7% and 69%, respectively.

These data come from patent US7659277B2, “Ubiquitin ligase inhibitors and methods related thereto” (Proteologies, Ltd., priority 2003, dated 2010).
